Laboratory results as given in patent EP2961788B1, “NANOPARTICLES STABILIZED WITH NITROPHENYLBORONIC ACID COMPOSITIONS” (priority 2013, dated 2014).
Where two headings read alike, the source gives them in different places.

Test system: BT-474 xenograft tumors
Method: Treatments began on day 1. […] All treatments were freshly prepared and given via intravenous tail vein injection. Injections were standardized at 150 µl per 20 g body weight of mice. […] Tumor sizes were recorded three times a week using caliper measurements (length x width^2/2) and health of the animals was continuously monitored. Animals were euthanized when tumor volumes exceeded 1000 mm^3. Six weeks after beginning of the treatment, animals were euthanized by CO2 asphyxiation.

[1] = 80 mg/kg, once per week for 3 weeks
[2] = 8 mg/kg, once per week for 3 weeks

SMILES | NTRD (number of treatment related death) [1] | Neuthan (number of animals euthanized due to exceeding tumor size limit of 1000 mm^3) [1] | Nreg to zero [1] | tumor inhibition compared to control group [1] | Nend (number of animals surviving to end of study) (8 mg/kg (MAP-CPT: CPT basis), i.v. once per week for 3 weeks) | NTRD (number of treatment related death) [2] | Nreg to zero [2] | tumor inhibition compared to control group [2]
CCc1c2c(nc3ccc(OC(=O)N4CCC(N5CCCCC5)CC4)cc13)-c1cc3c(c(=O)n1C2)COC(=O)[C@]3(O)CC [Irinotecan] | 1 | 0 | 0 | non-significant tumor inhibition | – | – | – | –
CC[C@@]1(O)C(=O)OCc2c1cc1n(c2=O)Cc2cc3ccccc3nc2-1 [CPT, Camptothecin] | – | – | – | – | 8/0 | 4 | 0 | no tumor inhibition
